We go through seven compounds from patent US12139477B2, “Compounds, salts thereof and methods for treatment of diseases” (ACADIA PHARMACEUTICALS INC., priority 2017, dated 2024).

pEC50, pIC50: −log10 of the molar value. Structures can show the parent of a compound that is named as a salt.

In data set [1] the target is T1, late hNav1.5 channel current (Homo sapiens, UniProt Q14524). To be noted: Oliveira, et al., J. Biol. Chem. 279 (2004); read-out: EC50 for increase of INa,L; cited from earlier work.
Data set [2] addresses T1, late hNav1.5 channel current. In words: NaV1.5 (for pimavanserin): late hNav1.5 current, HEK-293, ATX-II activated (CR-CLE). It counts as cell-based. Here is the method:
(§1) Nonlinear least squares fits were solved with the Solver add-in for Excel 2003 or later (Microsoft, Redmond, WA) and the IC50 was calculated.
0.1 μM ATX-II was omitted from the vehicle control solution used during initial gigaohm seal formation, transition to whole-cell patch clamp configuration and preliminary baseline recording before activation of late Nav1.5 current with 0.1 μM ATX-II. […] Positive Control Article: • Name: Ranolazine dihydrochloride • Source: Tocris • Batch Number: 2A/215231 • Molecular Weight: 509.47 g/mol • Purity: 98.7% • Storage Conditions: Room temperature • Rationale for Selection: Previous results have shown that 100 μM ranolazine dihydrochloride inhibits INa,L by approximately 85% End Blocker • Name: Lidocaine • Source: Sigma-Aldrich • Lot Number: MKBX2132V • Molecular Weight (g/mol): 234.34 • Storage Conditions: Room temperature • Rationale for Selection: Lidocaine is an inhibitor of peak hNav1.5 and late hNav1.5 currents. Each recording will end with application of 2 mM lidocaine to determine the amplitude of endogenous currents. […]
Electrophysiological Procedures: Cells were superfused with vehicle control solution without ATX-II (HB-PS+0.3% DMSO) until after whole-cell configuration was achieved and a stable baseline current was recorded. […]

The target in another data set is hCav1.2/β2/α2δ channels (Homo sapiens, UniProt Q13936). In words: CaV1.2 manual patch clamp, CHO cells (CR-CLE). The data set is classed as cell-based.
Text: Stocks were maintained in cryogenic storage. […] Each culture dish was identified by a notation of channel name, passage number, and date.
Rationale for Selection of Ion Channel and Expression Systems: Reduction of ICa,L is associated with action potential shortening in atrial fibrillation (Van Wagoner, et al., Circ Res 85:428-436 (1999)) while augmentation of ICa,L current may produce action potential prolongation (Ahmmed, et al., Circ Res 86:558-570 (2000)) and early after depolarizations (January, et al., Circ Res 62:563-571 (1988)). ICa.L is produced by the combination of calcium channel subunits encoded by CACNA1C (α1-subunit), CACNB2 (β2-subunit) and CACNA2D1 (α2δ-subunit) cDNAs.
• Organism: Cricetulus griseus • Tissue: Ovary; transfected with human CACNA1C • (α1-subunit), CACNB2 (β2-subunit), and • CACNA2D1 (α2δ-subunit) cDNAs • Morphology: Epithelial • Age/Stage: Adult • Source Strain: ATCC, Manassas, VA • Source Substrain: CR-CLE
CHO Cell Culture Procedures: CHO cells were stably co-transfected with human CACNA1C (α1-subunit), CACNB2 (β2-subunit), and CACNA2D1 (α2δ-subunit) cDNAs. Stable transfectants were selected by coexpression of the cDNAs with antibiotic resistance genes for blasticidin, hygromycin, G418, and zeocin. Selection pressure was maintained by including these antibiotics in the culture medium. Cells were cultured in Ham's F12 Medium supplemented with 10% fetal bovine serum, penicillin-streptomycin (100 units/mL), blasticidin (10 μg/mL), zeocin (400 μg/mL), G418 (250 μg/mL) and hygromycin (250 μg/mL). To avoid Ca^2+-induced toxicity, verapamil (3 μmol/L) was added to the cultured cells.
hCav1.2/β2/α2δ-CHO is a tetracycline-inducible cell line. To induce expression, tetracycline at a final concentration of 1 μg/mL was added to media lacking the selection antibiotics. Currents were recorded greater than 16 hours post-induction.
Treatment Groups: All experiments were performed at room temperature. Each cell acted as its own control.
Each concentration was tested in at least three cells (n≥3).
Positive Control Group: The positive control article nifedipine (Sigma-Aldrich) was tested in two cells (n=2) at 0.1 μM. Previous results have shown that nifedipine at 0.1 μM inhibits hCav1.2 current by approximately 90%.
Electrophysiological Procedures: Cells were superfused with vehicle control solution. Micropipette solution for whole cell patch clamp recordings was composed of (mM): Cs-methanesulfonate (MES), 130; TEA-Cl, 20, MgCl2, 1; EGTA, 10; Mg-ATP, 4; Tris-GTP, 0.3, phosphocreatine di-(Tris) salt, 14, creatine phosphokinase, 50 U/mL, and HEPES, 10; pH adjusted to 7.2 with N-methyl-D-glucamine or CsOH. Micropipette solution was prepared in batches, aliquoted, stored frozen, and a fresh aliquot thawed each day. […] Before digitization, current records were low-pass filtered at one-fifth of the sampling frequency.
Experimental Procedures: Onset and steady inhibition was evaluated at a test potential of 0 mV (150 ms duration), repeated at ten-second intervals from a holding potential of −40 mV. Peak current was measured during the step to 0 mV. Peak current was monitored until a new steady state was achieved. hCav1.2 current was monitored until a new steady state was achieved and a steady state was maintained for at least 20 s before applying test article or positive control article formulations. […]
as §1

For data set [3] the following is noted: as stated by the drug label; cited from earlier work.
Another data set deals with T2, hERG channel (Homo sapiens, UniProt Q12809).
T2 construct: host or cells: CHO cells, stably transfected
Kind of data set: hERG assay, whole cell recordings in CHO cells (AVIVA). The data set is classed as cell-based. To be noted: CHO cells stably expressing hERG, pH 7.4. In a few lines: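 Whole-cell voltage clamp of CHO cells stably expressing hERG, held at −80 mV; steps to +20 mV for 5 s, then −50 mV for 5 s, with tail current measured against a −50 mV baseline, every 12 s. Compounds applied in 4 additions until steady state (max 12 min), vs 0.1% DMSO vehicle baseline.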
(The hERG channel carries a current that helps repolarise heart muscle cells.)

Another data set concerns the target 5HT2A (Homo sapiens, UniProt P28223). In words: Beta-arrestin recruitment assay (Tango technology, antagonist mode). The data set is classed as cell-based. To be noted: read-out: 5HT2A (pIC50) Beta-arrestin (converted). Further details: engineered protease cleavage site followed by tethered transcription factor (C). The source says: Beta-Arrestin Recruitment Assay:
Detecting GPCR Signaling Using the Tango Technology
GPCR signaling through beta-arrestin was detected by the Tango Technology at Thermofisher. This technology is based upon the interaction of intracellular beta-arrestin proteins and the target receptor. Upon ligand binding to the target receptor, the protease tagged arrestin is stimulated and recruited to the engineered protease site on the C-terminus of the GPCR, which triggers release of the tethered transcription factor. The free transcription factor then enters the nucleus and stimulates the beta-lactamase (bla) activity.
Test compounds are received at 1000× (or greater) of the desired starting concentration in 100% DMSO. The 1000× test compounds are serially diluted (10 point […] increments) in 100% DMSO.
Antagonist Assay Protocol:
An Agonist assay screen (see above) is run to obtain the EC80 concentration of the known activator to add in step 3.
1. 32 μL of cells diluted in Assay Media to appropriate cell density are added to the assay plate. If needed, cells are incubated at 37° C./5% CO2 for 6 or 16-24 hours (depending upon cell line specifics) before compound is added.
2. 40 nL of 1000× compound or known antagonist titration plus 4 μL of Assay Media is added to the cells in the assay plate and incubated for 30 minutes at 37° C./5% CO2 in a humidified incubator.
3. 4 μL of the 10×EC80 concentration of agonist, as determined in an Agonist assay, is added to all wells containing test compound and known inhibitor to bring the final assay volume to 40 μL.
4. 4 μL of Assay Media is added to remaining control wells to bring the volume up to 40 μL.
5. The assay plate is incubated for 5 or 16 hours (depending upon cell line specifics) at 37° C./5% CO2 in a humidified incubator.
6. 8 μL of the Substrate Loading Solution is added to the assay plate.
7. The assay plate is incubated for 2 hours at room temperature, in the dark.
8. The assay plate is read on a fluorescence plate reader (Tecan Safire2) and the data is analyzed.
SelectScreen Cell-Based GPCR Profiling Service uses XLfit from IDBS. The dose response curve is curve fit to model number 205 (sigmoidal dose-response model). Custom logic was built in-house for the data analysis tool to address the different compound characteristics that can be observed with functional assays. Using this logic the relative EC50/IC50 value for each given compound is provided.
On the technique in general: Activated receptors often draw arrestin, which recruitment assays turn into a signal.

Another data set deals with hERG potassium channel (Homo sapiens, UniProt Q12809). In words: in vitro. To be noted: human, pH 7.4. Here is the method:
Each cell acted as its own control.
Temperature was measured using a thermistor probe in the recording chamber.

T1 sequence (Q14524 whole entry): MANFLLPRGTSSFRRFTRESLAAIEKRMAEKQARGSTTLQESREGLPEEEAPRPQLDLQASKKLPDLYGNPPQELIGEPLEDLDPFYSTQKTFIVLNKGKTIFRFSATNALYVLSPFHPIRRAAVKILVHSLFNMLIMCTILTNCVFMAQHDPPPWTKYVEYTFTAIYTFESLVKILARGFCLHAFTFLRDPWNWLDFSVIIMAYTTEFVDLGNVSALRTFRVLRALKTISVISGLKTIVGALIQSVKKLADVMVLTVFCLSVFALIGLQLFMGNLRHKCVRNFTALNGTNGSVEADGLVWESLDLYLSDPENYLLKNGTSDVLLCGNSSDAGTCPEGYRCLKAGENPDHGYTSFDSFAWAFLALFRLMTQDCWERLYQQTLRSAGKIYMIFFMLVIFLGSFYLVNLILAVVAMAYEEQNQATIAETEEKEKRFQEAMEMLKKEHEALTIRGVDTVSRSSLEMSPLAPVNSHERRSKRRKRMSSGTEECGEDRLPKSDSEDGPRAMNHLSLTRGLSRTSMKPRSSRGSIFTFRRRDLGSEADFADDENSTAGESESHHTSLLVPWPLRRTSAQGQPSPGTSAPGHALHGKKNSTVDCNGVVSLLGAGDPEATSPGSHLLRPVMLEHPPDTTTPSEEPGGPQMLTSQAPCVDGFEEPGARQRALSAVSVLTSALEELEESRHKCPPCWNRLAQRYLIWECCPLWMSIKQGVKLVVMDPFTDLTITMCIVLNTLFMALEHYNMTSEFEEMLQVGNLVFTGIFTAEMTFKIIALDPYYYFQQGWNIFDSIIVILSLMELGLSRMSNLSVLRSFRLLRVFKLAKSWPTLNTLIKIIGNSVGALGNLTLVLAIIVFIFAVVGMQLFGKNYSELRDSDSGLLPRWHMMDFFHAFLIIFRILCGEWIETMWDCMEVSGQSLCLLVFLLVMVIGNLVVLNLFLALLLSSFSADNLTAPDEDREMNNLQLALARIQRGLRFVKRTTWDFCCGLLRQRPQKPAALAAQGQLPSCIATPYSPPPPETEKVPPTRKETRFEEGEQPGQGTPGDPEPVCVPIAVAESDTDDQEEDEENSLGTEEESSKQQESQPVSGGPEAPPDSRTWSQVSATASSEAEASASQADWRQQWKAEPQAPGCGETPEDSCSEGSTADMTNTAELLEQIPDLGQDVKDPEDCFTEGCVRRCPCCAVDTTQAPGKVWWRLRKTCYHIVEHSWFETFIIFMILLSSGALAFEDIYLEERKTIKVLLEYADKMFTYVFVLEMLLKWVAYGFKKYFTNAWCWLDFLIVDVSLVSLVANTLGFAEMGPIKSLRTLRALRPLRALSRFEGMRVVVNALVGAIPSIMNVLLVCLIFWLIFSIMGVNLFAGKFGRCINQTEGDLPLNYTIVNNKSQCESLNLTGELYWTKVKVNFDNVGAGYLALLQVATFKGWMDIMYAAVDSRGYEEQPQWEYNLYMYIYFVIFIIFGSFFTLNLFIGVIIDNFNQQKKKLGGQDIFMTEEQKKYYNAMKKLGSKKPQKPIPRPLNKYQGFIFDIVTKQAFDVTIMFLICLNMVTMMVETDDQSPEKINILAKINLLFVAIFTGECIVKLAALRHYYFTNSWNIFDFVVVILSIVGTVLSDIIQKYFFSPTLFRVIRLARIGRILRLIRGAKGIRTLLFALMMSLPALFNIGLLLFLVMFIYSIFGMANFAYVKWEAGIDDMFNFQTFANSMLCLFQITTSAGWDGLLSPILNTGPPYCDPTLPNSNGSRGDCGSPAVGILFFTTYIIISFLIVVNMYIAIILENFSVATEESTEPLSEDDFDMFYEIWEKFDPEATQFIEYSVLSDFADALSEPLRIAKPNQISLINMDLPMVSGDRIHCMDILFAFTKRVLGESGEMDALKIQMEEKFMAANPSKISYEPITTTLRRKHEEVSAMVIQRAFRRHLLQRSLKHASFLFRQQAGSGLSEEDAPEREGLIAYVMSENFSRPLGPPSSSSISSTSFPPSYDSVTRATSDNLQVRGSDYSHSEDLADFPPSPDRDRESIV
T2 sequence (Q12809 whole entry): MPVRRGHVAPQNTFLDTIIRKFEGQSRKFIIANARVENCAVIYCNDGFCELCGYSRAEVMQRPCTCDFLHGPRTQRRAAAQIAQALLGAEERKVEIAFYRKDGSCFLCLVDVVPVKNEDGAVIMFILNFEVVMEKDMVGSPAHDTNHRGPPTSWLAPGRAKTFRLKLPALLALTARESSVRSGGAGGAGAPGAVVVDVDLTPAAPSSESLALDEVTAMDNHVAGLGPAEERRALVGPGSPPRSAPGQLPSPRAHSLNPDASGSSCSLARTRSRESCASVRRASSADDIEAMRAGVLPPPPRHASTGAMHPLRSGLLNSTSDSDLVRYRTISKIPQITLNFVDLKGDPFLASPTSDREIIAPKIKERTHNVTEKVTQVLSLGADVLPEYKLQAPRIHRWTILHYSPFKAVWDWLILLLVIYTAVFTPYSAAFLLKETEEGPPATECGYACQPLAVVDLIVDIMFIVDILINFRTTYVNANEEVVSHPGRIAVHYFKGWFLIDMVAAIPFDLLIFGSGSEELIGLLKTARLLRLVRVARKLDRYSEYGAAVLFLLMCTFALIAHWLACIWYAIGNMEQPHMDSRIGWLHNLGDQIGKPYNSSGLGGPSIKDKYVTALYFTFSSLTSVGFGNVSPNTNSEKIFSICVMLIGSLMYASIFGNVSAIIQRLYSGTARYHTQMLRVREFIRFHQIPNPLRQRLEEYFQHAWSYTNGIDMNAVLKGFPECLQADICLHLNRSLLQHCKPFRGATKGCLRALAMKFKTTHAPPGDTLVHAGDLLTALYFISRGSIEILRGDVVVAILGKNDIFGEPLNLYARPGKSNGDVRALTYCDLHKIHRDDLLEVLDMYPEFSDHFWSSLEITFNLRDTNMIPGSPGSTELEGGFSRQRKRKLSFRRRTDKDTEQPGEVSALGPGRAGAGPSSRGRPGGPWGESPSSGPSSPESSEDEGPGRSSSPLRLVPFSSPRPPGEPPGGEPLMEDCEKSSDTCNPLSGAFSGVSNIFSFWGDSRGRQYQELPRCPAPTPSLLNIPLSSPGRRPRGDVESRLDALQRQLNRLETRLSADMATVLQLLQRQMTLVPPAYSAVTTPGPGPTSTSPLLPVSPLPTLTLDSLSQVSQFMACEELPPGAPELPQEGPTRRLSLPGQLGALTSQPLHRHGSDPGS
Sequence of 5HT2A (P28223 whole entry): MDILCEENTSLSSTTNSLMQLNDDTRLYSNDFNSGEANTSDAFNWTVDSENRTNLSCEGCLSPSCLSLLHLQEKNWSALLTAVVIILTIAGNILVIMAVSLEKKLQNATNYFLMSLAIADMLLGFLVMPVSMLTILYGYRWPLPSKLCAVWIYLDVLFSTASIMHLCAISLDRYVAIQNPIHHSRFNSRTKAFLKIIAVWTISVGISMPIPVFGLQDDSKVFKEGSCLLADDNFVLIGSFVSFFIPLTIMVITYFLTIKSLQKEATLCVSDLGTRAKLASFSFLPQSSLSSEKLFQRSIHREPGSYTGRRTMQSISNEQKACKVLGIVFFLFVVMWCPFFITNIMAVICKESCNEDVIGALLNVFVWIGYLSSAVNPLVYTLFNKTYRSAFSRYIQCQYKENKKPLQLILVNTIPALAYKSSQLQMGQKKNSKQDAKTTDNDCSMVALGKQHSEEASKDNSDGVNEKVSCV
Sequence of hERG potassium channel (Q12809 whole entry): as the sequence (Q12809 whole entry) above

With “ATX-II: "Late hNav1.5 Current Agonist"; "ATX-II increases INa,L"; Molecular Weight 4935; Source: Alomone Labs”, the pEC50 (in general, the EC50 on a negative log10 scale, so that one unit is a factor of ten) in data set [1] is about 8.40.
Turning to `COc1ccccc1OCC(O)CN1CCN(CC(=O)Nc2c(C)cccc2C)CC1` (centres unmarked) [ranolazine dihydrochloride, Ranolazine dihydrochloride], in data set [2] (HEK293, 100 μM, positive control, previous results, read-out: inhibition of INa,L), the inhibition (in general, the change of the read-out against control, counted positive when it falls) at 100 µM was about 85%.
Consider `COC(=O)C1=C(C)NC(C)=C(C(=O)OC)C1c1ccccc1[N+](=O)[O-]` [nifedipine, reference compound], for which, at hCav1.2/β2/α2δ channels (0.1 μM, positive control, previous results, read-out: inhibition of hCav1.2 current), the inhibition at 0.1 µM was about 90%.
On to `CC(C)COc1ccc(CNC(=O)N(Cc2ccc(F)cc2)C2CCN(C)CC2)cc1` [Pimavanserin], for which the pIC50 (as a rule, the IC50 on a negative log10 scale, so that one unit is a factor of ten) on hCav1.2/β2/α2δ channels (manual patch clamp, room temperature, read-out: CaV 1.2 IC50) was 5.92; in data set [2] (read-out: NaV 1.5 IC50), 5.92. The “effect on QT interval” value in data set [3] is given as “prolongs the QT interval”.
In turn, `CC(C)Oc1ccc(CNC(=O)N(Cc2ccc(C#N)cc2F)C2CCN(C)CC2)cc1` [Example 43] had an inhibition at 1 µM at hERG channel of 42%. In addition, the IC50 at 5HT2A was 126 nM.
For `CN1CCC(N(Cc2ccc(F)cc2F)C(=O)NCc2ccc3ncsc3c2)CC1` [Example 39], in that order: 21% and 15.8 nM.
Take `COc1cc(N)c(Cl)cc1C(=O)NC1CCN(CCCOc2ccc(F)cc2)CC1OC` (centres unmarked) [cisapride, reference compound]: the inhibition at 0.09 µM against hERG potassium channel is about 80%.
